Assays:
[1] = tested on: Phaedon cochleariae; experiment: Phaedon cochleariae spray test (PHAECO); type: in vivo; details: application rate of 500 g/ha; after 7 days
Method: Phaedon cochleariae—Spray Test (PHAECO)
• Solvent: 78.0 parts by weight of acetone • 1.5 parts by weight of dimethylformamide • Emulsifier: 0.5 part by weight of alkylaryl polyglycol ether
(§1) To produce an appropriate active ingredient formulation, 1 part by weight of active ingredient is mixed with the specified amounts of solvent and emulsifier, and the concentrate is diluted to the desired concentration with emulsifier-containing water.
Discs of Chinese cabbage leaves (Brassica pekinensis) are sprayed with an active ingredient formulation of the desired concentration and, after drying, populated with larvae of the mustard beetle (Phaedon cochleariae).
After 7 days, the efficacy in % is determined 100% means that all beetle larvae have been killed; 0% means that none of the beetle larvae have been killed.

[2] = tested on: Tetranychus urticae; experiment: Tetranychus urticae spray test, OP-resistant (TETRUR); type: in vivo; details: application rate of 500 g/ha; after 6 days
Procedure, shortened: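 Mortality as % efficacy (0% = no mites killed) read 6 days after spraying. Formulation: active ingredient in acetone/dimethylformamide plus emulsifier, diluted with emulsifier-containing water, applied to Phaseolus vulgaris leaf discs carrying every life stage of OP-resistant spider mites.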

[3] = tested on: Meloidogyne incognita; experiment: Meloidogyne incognita test (MELGIN); type: in vivo; details: application rate of 20 ppm; after 14 days, by formation of galls
Method: Meloidogyne Incognita Test (MELGIN)
• Solvent: 125.0 parts by weight of acetone
To produce an appropriate active ingredient formulation, 1 part by weight of active ingredient is mixed with the specified amounts of solvent and the concentrate is diluted to the desired concentration with water.
Vessels are filled with sand, active ingredient solution, an egg/larvae suspension of the southern root-knot nematode (Meloidogyne incognita) and lettuce seeds. The lettuce seeds germinate and the plants develop. The galls develop on the roots
After 14 days, the nematicidal efficacy in % is determined by the formation of galls. 100% means that no galls have been found; 0% means that the number of galls on the treated plants corresponds to the untreated control.

[4] = log P by HPLC (OECD Guideline 117), method [a] acidic range; type: physicochemical; details: HPLC, method [a] acidic range
Method: (§2) The log P values were determined analogously to OECD Guideline 117 (EC Directive 92/69/EEC) by HPLC (high-performance liquid chromatography) using reversed-phase columns (C 18), by the following methods:
[a] The LC-MS determination in the acidic range is effected at pH 2.7 with 0.1% aqueous formic acid and acetonitrile (contains 0.1% formic acid) as eluents; linear gradient from 10% acetonitrile to 95% acetonitrile.

[5] = log P by HPLC (OECD Guideline 117), method [b] neutral range; type: physicochemical; details: HPLC, method [b] neutral range
Method: as §2
[b] The LC-MS determination in the neutral range is effected at pH 7.8 with 0.001 molar aqueous ammonium hydrogencarbonate solution and acetonitrile as eluents; linear gradient from 10% acetonitrile to 95% acetonitrile.

[6] = tested on: Boophilus microplus; experiment: Boophilus microplus injection test (BOOPMI Inj); type: in vivo; details: application rate of 20 μg/animal, assessed after 7 days by laying of fertile eggs
Procedure, shortened: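 Engorged adult female ticks (5 per test) injected in the abdomen with 1 μl of compound solution in DMSO, then held in a climate-controlled room. Efficacy scored after 7 days from fertile egg laying, with 100% meaning no fertile eggs and 0% all eggs fertile.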

[7] = tested on: Myzus persicae; experiment: Myzus persicae spray test (MYZUPE); type: in vivo; details: application rate of 500 g/ha; after 6 days
Method: Myzus persicae—Spray Test (MYZUPE)
• Solvent: 78 parts by weight of acetone • 1.5 parts by weight of dimethylformamide • Emulsifier: 0.5 part by weight of alkylaryl polyglycol ether
as §1
Discs of Chinese cabbage leaves (Brassica pekinensis) infested by all stages of the green peach aphid (Myzus persicae) are sprayed with an active ingredient formulation of the desired concentration.
After 6 days, the activity in % is determined 100% means that all the aphids have been killed; 0% means that none of the aphids have been killed.

| SMILES | efficacy [1] [%] | efficacy [2] [%] | nematicidal efficacy [3] [%] | logP[a] [4] | logP[b] [5] | efficacy [6] [%] | efficacy [7] [%] |
| --- | --- | --- | --- | --- | --- | --- | --- |
| Cc1cc(F)c(N2CC(OCC3CC3)=CC2=O)cc1[S+]([O-])CC(F)(F)F (stereo not drawn) [Example 332] | 83 | 90 | 90 | 2.55 | 2.50 | – | – |
| CC(CC(C)C)=Nn1c(C)nn(-c2cc(SCC(F)(F)F)c(C)cc2F)c1=O [Example 202] | – | 100 | 100 | 4.06 | 3.98 | – | – |
| Cc1cc(F)c(-n2nc(OCC(F)(F)F)n(C3CC3)c2=O)cc1SCC(F)(F)F [Example 103] | – | 100 | 100 | 3.80 | 3.72 | 100 | – |
| COc1nn(-c2cc([S+]([O-])CC(F)(F)F)c(C)cc2Cl)c(=O)n1C1CC1 (stereo not drawn) [Example 117] | – | 90 | 100 | 2.28 | 2.30 | 100 | – |
| Cc1cc(F)c(-n2nc(-c3ccc(Cl)cc3F)n(C)c2=O)cc1[S+]([O-])CC(F)(F)F (stereo not drawn) [Example 39] | – | 90 | 90 | 2.97 | 2.91 | – | – |
| COc1nn(-c2cc([S+]([O-])CC(F)(F)F)c(C)cc2F)c(=O)n1CC(F)(F)F (stereo not drawn) [Example 415] | – | 90 | 100 | 2.48 | 2.45 | 100 | – |
| CCc1nn(-c2cc(SCC(F)(F)F)c(C)cc2F)c(=S)n1C1CC1 [Example 502] | 83 | 90 | 90 | 3.69 | 3.65 | – | – |
| Cc1cc(F)c(-n2ncn(C3CC3)c2=O)cc1SCC(F)(F)F [Example 61] | – | 100 | 100 | 2.62 | 2.59 | – | – |
| COC1=CC(=O)N(c2ccc(C#N)c(SCC(F)(F)F)c2)C1 [Example 320] | 100 | – | – | 2.45 | 2.43 | – | 90 |
| COc1nn(-c2cc([S+]([O-])CC(F)(F)F)c(Cl)cc2Cl)c(=O)n1C1CC1 (stereo not drawn) [Example 106] | 100 | 100 | 90 | 2.65 | 2.61 | 100 | – |
| C=CCn1c([S+]([O-])CCC)nn(-c2cc([S+]([O-])CC(F)(F)F)c(C)cc2F)c1=O (stereo not drawn) [Example 423] | – | 90 | – | 2.34 | 2.37 | 100 | 90 |
| Cc1cc(F)c(-n2nnn(CC(F)(F)F)c2=O)cc1[S+]([O-])CC(F)(F)F (racemic) [Example 305] | – | 100 | 100 | 2.57 | 2.51 | 100 | – |
| Cc1ccc(-n2nc(OCC3CC3)n(C3CC3)c2=O)cc1SCC(F)(F)F [Example 135] | – | – | 90 | 4.60 | 4.56 | – | – |
| Cc1cc(F)c(N2CC(OCC3CC3)=CC2=O)cc1SCC(F)(F)F [Example 331] | 83 | 90 | 90 | 3.64 | 3.58 | – | – |
| COc1nn(-c2cc([S+]([O-])CC(F)(F)F)c(Cl)cc2F)c(=O)n1C1CC1 (stereo not drawn) [Example 115] | – | 100 | 90 | 2.45 | 2.43 | 100 | – |
| Cc1cc(F)c(-n2nc(C(F)(F)F)n(N(C)C)c2=O)cc1[S+]([O-])CC(F)(F)F (stereo not drawn) [Example 213] | – | 90 | 90 | 3.16 | 3.09 | – | – |
| C=C(C)CCOc1nn(-c2ccc(C)c([S+]([O-])CC(F)(F)F)c2)c(=O)n1C1CC1 (stereo not drawn) [Example 139] | – | – | 90 | 3.67 | 3.60 | – | – |

| SMILES | efficacy [1] [%] | efficacy [2] [%] | nematicidal efficacy [3] [%] | logP[a] [4] | logP[b] [5] | efficacy [6] [%] | efficacy [7] [%] |
| --- | --- | --- | --- | --- | --- | --- | --- |
| COc1nn(-c2cc([S+]([O-])CC(F)(F)F)c(C)cc2F)c(=O)n1C1CC1 (stereo not drawn) [Example 104] | – | 100 | 90 | 2.13 | 2.08 | 100 | – |
| Cc1cc(F)c(-n2nnn(CC(F)(F)C(F)(F)F)c2=O)cc1SCC(F)(F)F [Example 444] | – | 100 | 90 | 4.09 | 4.04 | – | – |
| COc1nn(-c2ccc(Br)c([S+]([O-])CC(F)(F)F)c2)c(=O)n1C1CC1 (stereo not drawn) [Example 110] | – | – | 100 | 3.00 | 2.95 | – | – |
| Cc1cc(F)c(-n2nc(OCC(F)(F)F)n(C)c2=O)cc1[S+]([O-])CC(F)(F)F (stereo not drawn) [Example 160] | – | 100 | 100 | 2.52 | 2.38 | 100 | – |
| Cc1cc(F)c(-n2nnn(CC(F)(F)C(F)(F)F)c2=O)cc1[S+]([O-])CC(F)(F)F (racemic) [Example 446] | – | 90 | 100 | 3.05 | 3.01 | – | – |
| COc1nn(-c2ccc(Cl)c([S+]([O-])CC(F)(F)F)c2)c(=O)n1C (stereo not drawn) [Example 99] | – | 90 | 90 | 2.54 | 2.52 | 100 | – |
| Cc1cc(F)c(-n2nc(C(F)(F)F)n(N(C)C)c2=O)cc1SCC(F)(F)F [Example 214] | – | – | 90 | 4.24 | 4.15 | – | – |
| COc1nn(-c2cc(SCC(F)(F)F)c(C)cc2Cl)c(=O)n1C1CC1 [Example 116] | – | 90 | 100 | 3.20 | 3.30 | 100 | – |
| Cc1cc(F)c(-n2nc(OCC(F)(F)F)n(C3CC3)c2=O)cc1[S+]([O-])CC(F)(F)F (stereo not drawn) [Example 102] | – | 100 | 100 | 2.83 | 2.77 | 100 | – |
| Cc1cc(F)c(-n2nnn(CC(F)(F)F)c2=O)cc1SCC(F)(F)F [Example 304] | – | 100 | 100 | 3.61 | 3.48 | – | – |
| COc1nn(-c2cc(SCC(F)(F)F)c(Cl)cc2Cl)c(=O)n1C1CC1 [Example 107] | – | – | 90 | 3.46 | 3.42 | – | – |
| CCC(C)Oc1nn(-c2cc(SCC(F)(F)F)c(C)cc2F)c(=O)n1C1CC1 (stereo not drawn) [Example 140] | – | 100 | 90 | 4.36 | 4.30 | – | – |
| COc1nn(-c2ccc(C#N)c([S+]([O-])CC(F)(F)F)c2)c(=O)n1C1CC1 (stereo not drawn) [Example 118] | – | – | 100 | 2.47 | 2.43 | – | – |
| COc1nn(-c2cc(SCC(F)(F)F)c(C)cc2F)c(=O)n1C1CC1 [Example 105] | – | 100 | 90 | 3.16 | 3.11 | 100 | – |
| Cc1cc(F)c(-n2nc(OCC(C)(C)C)n(C)c2=O)cc1SCC(F)(F)F [Example 150] | – | 100 | 90 | 4.35 | 4.29 | – | – |
| Cc1cc(F)c(-n2nc(-c3ccc(Cl)cc3F)n(C)c2=O)cc1SCC(F)(F)F [Example 40] | – | 100 | 100 | 4.06 | 3.96 | – | – |
| CCCCOc1nn(-c2cc([S+]([O-])CC(F)(F)F)c(C)cc2F)c(=O)n1C (stereo not drawn) [Example 146] | – | 100 | 90 | 2.90 | 2.85 | – | – |
